# Assay results as given in PubChem BioAssay AID2060894 (Molecular Pharmacology Branch, DTP, NCI, 2025).
# System: K12877-001-R-J1-PDC complex spheroid viability
# Test: Anticancer human tumor K12877-001-R-J1-PDC patient-derived lung adenocarcinoma cell line growth inhibition [RAS]
# Settings: for IC50: curve of first compound; for viability, T/C: stronger effect = lower value
# In short: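 Tumour cells grown as complex spheroids with HUVEC endothelial cells and mesenchymal stem cells, treated with RAS pathway inhibitor combinations. Each agent spans half-log steps from near clinical Cmax, or 10 microM where Cmax is unknown.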
# [1] = second compound 0.000949 µM, first compound 0.0316 µM
# [2] = second compound 0.000949 µM, first compound 0.1 µM
# [3] = second compound 0.000949 µM, first compound 0.316 µM
# [4] = second compound 0.000949 µM, first compound 1 µM
# [5] = second compound 0.003 µM, first compound 0.0316 µM
# [6] = second compound 0.003 µM, first compound 0.1 µM
# [7] = second compound 0.003 µM, first compound 0.316 µM
# [8] = second compound 0.003 µM, first compound 1 µM
# [9] = second compound 0.00949 µM, first compound 0.0316 µM
# [10] = second compound 0.00949 µM, first compound 0.1 µM
# [11] = second compound 0.00949 µM, first compound 0.316 µM
# [12] = second compound 0.00949 µM, first compound 1 µM
# [13] = second compound 0.03 µM, first compound 0.0316 µM
# [14] = second compound 0.03 µM, first compound 0.1 µM
# [15] = second compound 0.03 µM, first compound 0.316 µM
# [16] = second compound 0.03 µM, first compound 1 µM
# [17] = second compound 0.0949 µM, first compound 0.0316 µM
# [18] = second compound 0.0949 µM, first compound 0.1 µM
# [19] = second compound 0.0949 µM, first compound 0.316 µM
# [20] = second compound 0.0949 µM, first compound 1 µM
# [21] = second compound 0.3 µM, first compound 0.0316 µM
# [22] = second compound 0.3 µM, first compound 0.1 µM
# [23] = second compound 0.3 µM, first compound 0.316 µM
# [24] = second compound 0.3 µM, first compound 1 µM
# 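Also: spheroids exposed to agents for one week before readout.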
# 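For viability, T/C in this document: tumour cells co-cultured with HUVEC and mesenchymal stem cells in spheroids.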
structure (smiles),measurement,setting,value
CC(Nc1ccc2c(c1)OCCn1cc(N3C(=O)OCC3C(F)F)nc1-2)C(N)=O (centres undefined) + CCn1c(-c2cc(N3CCN(C)CC3)cnc2C(C)OC)c2c3cc(ccc31)-c1csc(n1)CC(NC(=O)C1CC1C)C(=O)N1CCCC(N1)C(=O)OCC(C)(C)C2,IC50,second compound 0.000949 µM,> 10000 nM
same,IC50,second compound 0.003 µM,7420 nM
same,IC50,second compound 0.00949 µM,4590 nM
same,IC50,second compound 0.03 µM,1250 nM
same,IC50,second compound 0.0949 µM,249 nM
same,IC50,second compound 0.3 µM,77.5 nM
same,"viability, T/C",[1],80.9%
same,"viability, T/C",[2],81.2%
same,"viability, T/C",[3],81.5%
same,"viability, T/C",[4],72.4%
same,"viability, T/C","second compound 0.000949 µM, first compound 3.16 µM",62.2%
same,"viability, T/C","second compound 0.000949 µM, first compound 10 µM",56%
same,"viability, T/C",[5],71.6%
same,"viability, T/C",[6],68.2%
same,"viability, T/C",[7],63.4%
same,"viability, T/C",[8],68.3%
same,"viability, T/C","second compound 0.003 µM, first compound 3.16 µM",62.9%
same,"viability, T/C","second compound 0.003 µM, first compound 10 µM",45.5%
same,"viability, T/C",[9],72.7%
same,"viability, T/C",[10],68.9%
same,"viability, T/C",[11],70.6%
same,"viability, T/C",[12],69.5%
same,"viability, T/C","second compound 0.00949 µM, first compound 3.16 µM",59.1%
same,"viability, T/C","second compound 0.00949 µM, first compound 10 µM",29.9%
same,"viability, T/C",[13],94.3%
same,"viability, T/C",[14],82.6%
same,"viability, T/C",[15],64.1%
same,"viability, T/C",[16],52.6%
same,"viability, T/C","second compound 0.03 µM, first compound 3.16 µM",42.7%
same,"viability, T/C","second compound 0.03 µM, first compound 10 µM",20%
same,"viability, T/C",[17],80.3%
same,"viability, T/C",[18],61.2%
same,"viability, T/C",[19],43.8%
same,"viability, T/C",[20],35.8%
same,"viability, T/C","second compound 0.0949 µM, first compound 3.16 µM",23.7%
same,"viability, T/C","second compound 0.0949 µM, first compound 10 µM",12%
same,"viability, T/C",[21],65.9%
same,"viability, T/C",[22],40.2%
same,"viability, T/C",[23],32.2%
same,"viability, T/C",[24],30.3%
same,"viability, T/C","second compound 0.3 µM, first compound 3.16 µM",19.1%
same,"viability, T/C","second compound 0.3 µM, first compound 10 µM",8.63%
O=C(c1ccc(F)c(F)c1Nc1ccc(I)cc1F)N1CC(O)([C@@H]2CCCCN2)C1 + CCn1c(-c2cc(N3CCN(C)CC3)cnc2C(C)OC)c2c3cc(ccc31)-c1csc(n1)CC(NC(=O)C1CC1C)C(=O)N1CCCC(N1)C(=O)OCC(C)(C)C2,IC50,second compound 0.000949 µM,> 1000 nM
same,IC50,second compound 0.003 µM,> 1000 nM
same,IC50,second compound 0.00949 µM,> 1000 nM
same,IC50,second compound 0.03 µM,508 nM
same,IC50,second compound 0.0949 µM,98.8 nM
same,IC50,second compound 0.3 µM,58.5 nM
same,"viability, T/C","second compound 0.000949 µM, first compound 0.00316 µM",79.6%
same,"viability, T/C","second compound 0.000949 µM, first compound 0.01 µM",71.2%
same,"viability, T/C",[1],66%
same,"viability, T/C",[2],57.9%
same,"viability, T/C",[3],71.4%
same,"viability, T/C",[4],56%
same,"viability, T/C","second compound 0.003 µM, first compound 0.00316 µM",71.4%
same,"viability, T/C","second compound 0.003 µM, first compound 0.01 µM",66.6%
same,"viability, T/C",[5],68.1%
same,"viability, T/C",[6],79%
same,"viability, T/C",[7],82.6%
same,"viability, T/C",[8],60.5%
same,"viability, T/C","second compound 0.00949 µM, first compound 0.00316 µM",71.3%
same,"viability, T/C","second compound 0.00949 µM, first compound 0.01 µM",65.8%
same,"viability, T/C",[9],82%
same,"viability, T/C",[10],91.3%
same,"viability, T/C",[11],80.7%
same,"viability, T/C",[12],53.5%
same,"viability, T/C","second compound 0.03 µM, first compound 0.00316 µM",110%
same,"viability, T/C","second compound 0.03 µM, first compound 0.01 µM",105%
same,"viability, T/C",[13],98.9%
same,"viability, T/C",[14],72.6%
same,"viability, T/C",[15],59.4%
same,"viability, T/C",[16],40%
same,"viability, T/C","second compound 0.0949 µM, first compound 0.00316 µM",92.7%
same,"viability, T/C","second compound 0.0949 µM, first compound 0.01 µM",90.4%
same,"viability, T/C",[17],77.8%
same,"viability, T/C",[18],50.3%
same,"viability, T/C",[19],29%
same,"viability, T/C",[20],25.6%
same,"viability, T/C","second compound 0.3 µM, first compound 0.00316 µM",80.2%
same,"viability, T/C","second compound 0.3 µM, first compound 0.01 µM",74.9%
same,"viability, T/C",[21],54.8%
same,"viability, T/C",[22],44.8%
same,"viability, T/C",[23],29.2%
same,"viability, T/C",[24],20.3%
